# In patent EP0491793B1, “2'-DEOXY-4'-THIORIBONUCLEOSIDES AS ANTIVIRAL AND ANTICANCER AGENTS” (Southern Research Institute, priority 1989, dated 1991):
# Like-named read-outs stand apart in the source and are kept apart here.
# Legend:
# HSV-2 (MS) = assay: CPE-inhibition assay against HSV-2 in Vero cell monolayers; assay type: cell-based, herpes simplex virus, Type 2; conditions: for VR: Virus Rating, VR 1.0 or greater significant, 0.5-0.9 marginal, less than 0.5 inactive; for EC50: read-out: MIC50
# Protocol: (§1) 2'-Deoxy-4'-thioribonucleosides were tested for antiviral activity against viruses that replicate in mammalian cells growing in cell culture. The Virus Rating (VR) is a standard weighted measurement of antiviral activity which takes into account the degree of inhibition of virus-induced cytopathogenic effects (CPE) and the degree of cytotoxicity produced by the test compound, determined by a modification of the method of Ehrlich et al, Ann. N.Y. Acad. Sci. 130, 5-16 (1965) .
# (§2) The CPE-inhibition assays were designed to test seven 0.5 log10 concentrations of each compound, beginning with 320 µg/mL, against HSV in triplicate 24-hour Vero cell monolayers in 96-well tissue culture plates. To each of the replicate cell cultures were dispensed 0.1 mL of the test compound solution (or suspension) and 0.1 mL of HSV suspension (diluted in medium to yield 32 CCID50 units per 0.1 mL). Cell controls, untreated virus-infected controls and drug cytotoxicity controls were included in each assay. […] The cell monolayers were examined microscopically for drug cytotoxicity and for CPE. which was graded on a scale of 0-4 (0-100% CPE).
# (§3) The VR was calculated as 0.1 of the sum of the numerical differences between the recorded CPE grade of each test well and that of the corresponding virus control in the culture plate. Numerical differences between the scores of test wells containing a drug concentration which is partially cytotoxic and their corresponding virus controls were halved.
# (§4) In tests carried out by this method, a greater value of VR indicates greater antiviral activity.
# (§5) The MIC50 (minimum inhibitory concentration, 50%) is the concentration of a test compound required for 50% inhibition of virus-induced cytopathogenic effect calculated by using a regression analysis program for semilog curve fitting. MTC (minimum toxic concentration) is the minimum drug concentration (µg/ml) causing any cytotoxicity. TI is the therapeutic index, calculated by dividing the minimum cytotoxic drug concentration (MTC) by the minimum inhibitory concentration, 50% (MIC50). […]
# [1] = system: human epidermoid carcinoma No. 2 ("H.Ep.-2") cells; assay: Cytotoxicity test, colony formation of H.Ep.-2 cells; assay type: cell-based; conditions: HEp-2, 240 h, concentration reducing colony formation by 50%, 10 days incubation
# Protocol: (§6) 2'-Deoxy-4'-thioribonucleosides were tested for antitumor activity against leukemia L1210 ("L1210") cells and human epidermoid carcinoma No. 2 ("H.Ep.-2") cells.
# (§7) For H.Ep.-2 cells, the IC50 is the concentration required to reduce colony formation by 50% as compared to controls. One hundred cells in 10 mL of medium were placed in prescription bottles, and after 10 days incubation, the medium was decanted and the colonies were stained and counted.
# (§8) In the cytotoxicity tests, the lower the IC50 value, the greater the antitumor activity. […]
# [2] = system: either H.Ep.-2 or L1210 cells, or both; assay: Cytotoxicity tests, summary statements that do not fix the cell line; assay type: cell-based; conditions: text statement on Table 2, cell line not fixed
# Protocol: as §6
# (§9) For L1210 cells the IC50 is the concentration required to decrease cellular proliferation by 50% as compared to untreated controls. The cells were grown in suspension cultures and the number of cells present was determined at 24 and 48 hours.
# as §7, §8
# in vitro = assay type: cell-based; conditions: monkey, vero cells
# Protocol: (§10) The CPE-inhibition assays were designed to test seven 0.5 log10 concentrations of each compound, beginning with 320 µg/mL, against HSV in triplicate 24-hour Vero cell monolayers in 96-well tissue culture plates. […] Cell controls, untreated virus-infected controls and drug cytotoxicity controls were included in each assay. […] The cell monolayers were examined microscopically for drug cytotoxicity and for CPE. which was graded on a scale of 0-4 (0-100% CPE). The MIC50 (minimum inhibitory concentration, 50%) is the concentration of a test compound required for 50% inhibition of virus-induced cytopathogenic effect calculated by using a regression analysis program for semilog curve fitting. MTC (minimum toxic concentration) is the minimum drug concentration (µg/ml) causing any cytotoxicity. TI is the therapeutic index, calculated by dividing the minimum cytotoxic drug concentration (MTC) by the minimum inhibitory concentration, 50% (MIC50). […]
# HSV-1 (E377) = assay: CPE-inhibition assay against HSV-1 in Vero cell monolayers; assay type: cell-based, herpes simplex virus, Type 1; conditions: for EC50: read-out: MIC50; for VR: Virus Rating, VR 1.0 or greater significant, 0.5-0.9 marginal, less than 0.5 inactive; for TI: therapeutic index, MTC divided by MIC50, HSV-1 (E377)
# Protocol: as §1, §2, §3, §4, §5
# [3] = system: leukemia L1210 ("L1210") cells; assay: Cytotoxicity test, cellular proliferation of L1210 cells in suspension culture; assay type: cell-based; conditions: Mus musculus, concentration decreasing cellular proliferation by 50%, 48 hour values
# Protocol: as §6, §9, §8
# Vero cell monolayers = assay: in vitro; assay type: cell-based; conditions: monkey, vero cells
# Protocol: as §10
# [4] = Human alphaherpesvirus 1, 50% inhibition of virus-induced cytopathogenic effect, HSV-1 (E377), Vero cells, unit not given for MIC50 (MTC in µg/ml, TI = MTC/MIC50)
EC50 (HSV-1 (E377); [4]) [µg/mL],SMILES,"VR (HSV-2 (MS); HSV-2 (MS), Vero cells)",IC50 [1] [µg/mL],IC50 [2] [µg/mL],MCC (in vitro) [µg/mL],"VR (HSV-1 (E377); HSV-1 (E377), Vero cells)",TI (HSV-1 (E377)),IC50 [3] [µg/mL],MIC (Vero cell monolayers),antiviral activity against herpes simplex Type 1 (HSV-1 (E377); statement in words on the tests of Table 1),"EC50 (HSV-2 (MS); Human alphaherpesvirus 2, 50% inhibition of virus-induced cytopathogenic effect, HSV-2 (MS), Vero cells, unit not given for MIC50 (MTC in µg/ml, TI = MTC/MIC50)) [µg/mL]","EC50 (HSV-2 (MS); Human alphaherpesvirus 2, Vero) [µg/mL]","TI (HSV-2 (MS); therapeutic index, MTC divided by MIC50, HSV-2 (MS))","EC50 (HSV-1 (E377); Human alphaherpesvirus 1, Vero) [µg/mL]"
0.8,Cc1cn([C@H]2C[C@H](O)[C@@H](CO)S2)c(=O)[nH]c1=O [1-(2'-Deoxy-4'-thio-β-D-ribofuranosyl)thymine],0.1,0.075,< 1,2.6,1.3,3.2 -,0.025,,,,,,
100,Cc1cn([C@@H]2C[C@H](O)[C@@H](CO)S2)c(=O)[nH]c1=O [1-(2-Deoxy-4-thio-α-D-ribofuranosyl)-thymine],0.3,2.7,,> 257,1.4,2.3 -,20,>257.2 >257.2 µg/ml,definite antiviral activity,,,,
,"Nc1ncnc2c1ncn2[C@@H]1O[C@H](CO)[C@@H](O)[C@@H]1O [Ara-A, 9-β-D-arabinofuranosyladenine, reference compound]",1.1,,,84.8,1.8,5.6,,,,,39.3,2.2,15.2

SMILES,EC50 (HSV-1 (E377); [4]) [µg/mL],"VR (HSV-2 (MS); HSV-2 (MS), Vero cells)",IC50 [1] [µg/mL],IC50 [2] [µg/mL],MCC (in vitro) [µg/mL],"VR (HSV-1 (E377); HSV-1 (E377), Vero cells)",TI (HSV-1 (E377)),IC50 [3] [µg/mL],MIC (Vero cell monolayers),antiviral activity against herpes simplex Type 1 (HSV-1 (E377); statement in words on the tests of Table 1),"EC50 (HSV-2 (MS); Human alphaherpesvirus 2, 50% inhibition of virus-induced cytopathogenic effect, HSV-2 (MS), Vero cells, unit not given for MIC50 (MTC in µg/ml, TI = MTC/MIC50)) [µg/mL]","EC50 (HSV-2 (MS); Human alphaherpesvirus 2, Vero) [µg/mL]","TI (HSV-2 (MS); therapeutic index, MTC divided by MIC50, HSV-2 (MS))","EC50 (HSV-1 (E377); Human alphaherpesvirus 1, Vero) [µg/mL]"
"Nc1nc2c(ncn2COCCO)c(=O)[nH]1 [Acyclovir, reference compound]",0.5,4.8,,,> 225,6.7,> 441,,>225.2 >225.2 µg/ml,,3.6,,,
